Test results as given in BindingDB's records for PubMed 1706470 (Abbott Laboratories, 1991).

Biological target: T1, Gastrin/cholecystokinin type B receptor (Cavia porcellus, UniProt H0VZC5)
T1 sequence (H0VZC5 whole entry): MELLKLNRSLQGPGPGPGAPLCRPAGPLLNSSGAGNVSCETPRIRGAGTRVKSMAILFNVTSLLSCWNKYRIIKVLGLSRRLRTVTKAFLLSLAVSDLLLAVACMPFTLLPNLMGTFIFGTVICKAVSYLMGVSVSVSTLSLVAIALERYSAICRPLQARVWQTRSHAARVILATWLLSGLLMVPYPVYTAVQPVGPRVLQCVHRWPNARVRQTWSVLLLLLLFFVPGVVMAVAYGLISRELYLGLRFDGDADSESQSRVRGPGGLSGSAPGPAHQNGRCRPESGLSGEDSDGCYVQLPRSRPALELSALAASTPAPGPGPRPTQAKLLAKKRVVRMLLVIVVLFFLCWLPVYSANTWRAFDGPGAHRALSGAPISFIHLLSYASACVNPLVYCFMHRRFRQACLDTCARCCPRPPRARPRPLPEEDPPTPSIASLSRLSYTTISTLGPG

CC(C)(C)OC(=O)NC(Cc1c[nH]c2ccccc12)C(=O)N(C(=O)C(N)Cc1ccccc1)C(=O)C(CC(=O)O)NC(=O)C(N)CCCCNC(=O)OCc1ccccc1 (stereo unspecified) [A-57282]
Ki: 510 nM
